Measured values from PMC9290008 (ACS Medicinal Chemistry Letters, 2022).

Assay: GSH incorporation experiments
Assay type: in vitro ADME, human
Settings: 10 μM compound, GSH 5 mM, 37 °C, 30 min; for %GSH − HLM: absence of HLM; for % GSH + HLM: presence of HLM

%GSH − HLM [%] | % GSH + HLM [%] | SMILES
0.1 | 53.5 | Clc1nccc(-n2ccc3ncccc32)n1 [Compound 8]
2.8 | 49.9 | N#Cc1ccc(Cl)nc1-n1ccc2ncncc21 [Compound 23]
2.5 | 99.9 | Clc1ncc(Cl)c(-n2ccc3ncncc32)n1 [Compound 20]
– | 96.0 | Clc1ncc(Cl)c(-n2ccc3ncccc32)n1 [Compound 1]
0 | 16.1 | Clc1ncc(Cl)c(-c2c[nH]c3ncncc23)n1 [Compound 21]
